In PubChem BioAssay (NCI):
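Five concentrations, 48 hours, 96-well plates. Definition used: TGI = concentration required for complete inhibition of growth.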

Legend:
Test in all cases: NCI-60 cell line screen, 48 h
MCF7 breast = tested on: MCF7 breast
MDA-MB-435 = tested on: MDA-MB-435
MDA-N = tested on: MDA-N
SN12C renal = tested on: SN12C renal
NCI-H226 lung = tested on: NCI-H226 lung
PC-3 prostate = tested on: PC-3 prostate
T-47D breast = tested on: T-47D breast
M14 melanoma = tested on: M14 melanoma
RXF 393 renal = tested on: RXF 393 renal
A549 NSCLC = tested on: A549 NSCLC
OVCAR-3 ovarian = tested on: OVCAR-3 ovarian
HS 578T breast = tested on: HS 578T breast
SK-MEL-28 melanoma = tested on: SK-MEL-28 melanoma
NCI-H522 lung = tested on: NCI-H522 lung
ACHN renal = tested on: ACHN renal
UACC-257 melanoma = tested on: UACC-257 melanoma
HL-60(TB) leukemia = tested on: HL-60(TB) leukemia
HOP-62 NSCLC = tested on: HOP-62 NSCLC
MALME-3M melanoma = tested on: MALME-3M melanoma
TK-10 renal = tested on: TK-10 renal
IGROV1 ovarian = tested on: IGROV1 ovarian
COLO 205 colon = tested on: COLO 205 colon
HCT-15 colon = tested on: HCT-15 colon
KM12 colon = tested on: KM12 colon
OVCAR-5 ovarian = tested on: OVCAR-5 ovarian
OVCAR-8 ovarian = tested on: OVCAR-8 ovarian
HCT-116 colon = tested on: HCT-116 colon
SF-295 CNS = tested on: SF-295 CNS
SK-MEL-5 melanoma = tested on: SK-MEL-5 melanoma
NCI/ADR-RES ovarian = tested on: NCI/ADR-RES ovarian
UACC-62 melanoma = tested on: UACC-62 melanoma
HT29 colon = tested on: HT29 colon
SW-620 colon = tested on: SW-620 colon
SNB-75 CNS = tested on: SNB-75 CNS
SK-OV-3 ovarian = tested on: SK-OV-3 ovarian
OVCAR-4 ovarian = tested on: OVCAR-4 ovarian
SF-539 CNS = tested on: SF-539 CNS
NCI-H460 lung = tested on: NCI-H460 lung
A498 renal = tested on: A498 renal
MDA-MB-231 breast = tested on: MDA-MB-231 breast
SNB-19 CNS = tested on: SNB-19 CNS
SR leukemia = tested on: SR leukemia
HOP-92 NSCLC = tested on: HOP-92 NSCLC
U251 CNS = tested on: U251 CNS
BT-549 breast = tested on: BT-549 breast
DU-145 prostate = tested on: DU-145 prostate
786-0 renal = tested on: 786-0 renal
SK-MEL-2 melanoma = tested on: SK-MEL-2 melanoma
CAKI-1 renal = tested on: CAKI-1 renal
RPMI-8226 leukemia = tested on: RPMI-8226 leukemia
MOLT-4 leukemia = tested on: MOLT-4 leukemia
NCI-H23 lung = tested on: NCI-H23 lung
LOX IMVI melanoma = tested on: LOX IMVI melanoma
EKVX NSCLC = tested on: EKVX NSCLC
CCRF-CEM leukemia = tested on: CCRF-CEM leukemia
K-562 leukemia = tested on: K-562 leukemia
SF-268 CNS = tested on: SF-268 CNS
HCC-2998 colon = tested on: HCC-2998 colon
UO-31 renal = tested on: UO-31 renal

Measured: TGI

C[N+](C)(N)Cc1nc(-c2ccc(Cl)cc2)no1
not listed: SF-268 CNS | HCC-2998 colon | UO-31 renal
> 100 µM: all other assays above

CCN(CC)C1=Nc2ccccc2-n2ccnc2C1
not listed: MALME-3M melanoma | SK-OV-3 ovarian | RPMI-8226 leukemia
> 100 µM: all other assays above
